Reference: patent publication US4205086A, “Method for the treatment of gallstones” (priority 1977, dated 1980)
Where two headings read alike, the source gives them in different places.

Legend:
[1] = cited from earlier work; for tolerability by patients / toxicity: organic solvents; for solubilizing capacity for gallstones: 100-200 mM solutions
[2] = studies evaluating the solubility of gallstones in a variety of compounds (Example 3); details: observed for several days
Protocol: Studies are conducted to evaluate the solubility of gallstones in a variety of compounds.

[3] = treatment of gallstones by perfusion, general results in practice; type: in vivo, human (patient); details: for solvency for the gallstones: in vivo; for results in treatment of gallstones: perfusion
Excerpt: In accordance with the method of the present invention a selected compound is perfused adjacent the gallstone. For the purposes herein, the term perfusion is intended to encompass the introduction of the compound in a manner that will cause the compound to pass over or around the subject gallstone, and includes equivalent terms such as infusion. The perfusion may be accomplished in accordance with normal procedures, and for example may be performed with a T-tube or an endoscope. The compound utilized by the present invention thereby contacts and gradually dissolves the gallstone. The response of the gallstone to this procedure may be followed, for example, by repeated cholangiograms.
A compound useful in accordance with the method of the present invention may also comprise a mixture of fatty acids and alcohol esters of fatty acids. Typically the fatty acid esters would be esters of the same fatty acids which exist separately in the solution, although such is not required. It is preferred that the fatty acids which exist either as themselves or in the ester form have from about 2 to about 12 carbon atoms, with from about 8 to about 10 carbon atoms being more preferred. In a most preferred embodiment of the present invention, the method comprises the perfusion of a compound having a mixture of fatty acids from about 8 to about 10 carbon atoms and alcohol esters, particularly glycerides, of fatty acids having from about 8 to about 10 carbon atoms. […].

[4] = viscosity of compounds used for perfusion (in words); type: physicochemical
Excerpt: It is also preferable that the compound not be excessively viscous at the perfusion temperature in view of the need for the compound to move through the perfusion equipment and to pass over or around the gallstone. The degree of viscosity which is tolerable, and the compounds therefore useful in the present invention, may be readily determined by experiment. […] Fatty acids useful in the present invention are generally those having short to medium carbon chain lengths, or from about 2 to about 12 carbon atoms. […]. As previously mentioned, these fatty acids which have melting points above body temperature, which is approximately 37° C., may be combined with the fatty acids which are liquid at body temperature to provide a liquid mixture having relatively low proportions of the higher fatty acids.

[5] = test comparing the solubility of gallstones in glycerol mono-octanoate and 200 mM sodium cholate (Example 2); set-up: species or system human (patient); details: six days; sodium cholate 200 mM, mono-octanoate solution as in Example 1

Q: Which “results in dissolution of gallstones” value ([1]; prior art) does the source give for C[C@H](CCC(=O)O)[C@H]1CC[C@H]2[C@@H]3[C@H](O)C[C@@H]4C[C@H](O)CC[C@]4(C)[C@H]3CC[C@]12C [Kenodeoxycholic acid] here?
A: The value was “more preferable, but also is relatively slow”.

Q: For CCCCCCCCCC(=O)OCCCC [butanol decanoate], which “solubility of gallstones in the compound” value [2] is on record?
A: Its value is “suitably soluble”.

Q: For ClC(Cl)Cl [chloroform], which tolerability by patients ([1]; prior art) is on record?
A: Its tolerability by patients is “poorly tolerated”.

Q: And the toxicity ([1]; prior art)?
A: The toxicity was “potentially toxic”.

Q: Which results are given for C=C(C)[C@H]1CC=C(C)CC1 [d-limonene]?
A: tolerability by patients ([1]; prior art): poorly tolerated; toxicity ([1]; prior art): potentially toxic; results in dissolution of gallstones ([1]; prior art): without highly favorable results

Q: Which “solubility of gallstones in the compound” value [2] does the source give for CCCCCCCC(=O)OCC [ethanol octanoate] here?
A: The value was “suitably soluble”.

Q: What does the source list for CCOCC [ether]?
A: tolerability by patients ([1]; prior art): poorly tolerated; toxicity ([1]; prior art): potentially toxic; results in dissolution of gallstones ([1]; prior art): without highly favorable results

Q: With CCCCCCCC(=O)OCCO [ethylene glycol mono-octanoate] as the compound, how does the “solubility of gallstones in the compound” value [2] read?
A: Its value is “suitably soluble”.

Q: Which “solubility of gallstones in the compound” value [2] does the source give for CCCCCCCC(=O)OCC(O)CO (stereo not shown) [glycerol mono-octanoate] here?
A: The value was “suitably soluble”.

Q: And the “solvency for the gallstones” value [3]?
A: The value was “high solvency”.

Q: What about the “results in treatment of gallstones” value [3] of the same compound?
A: The value was “excellent results”.

Q: What about the “results in treatment of gallstones” value ([3]; listed as mono-glyceride of octanoic acid) of the same compound?
A: Its value is “particularly excellent results”.

Q: And the viscosity [4]?
A: Its viscosity is “low viscosity”.

Q: And the “tolerability and adverse symptoms or effects” value (human, in vivo)?
A: The value was “tolerated the procedure well and showed no adverse symptoms or effects”.

Q: And the “stones on follow-up after six days of perfusion” value (perfused at 5 ml per hour, after six days, patient)?
A: Its value is “only two very small lucencies were apparent”.

Q: And the “stones on follow-up after 3 additional days of perfusion” value (perfused at 5 ml per hour, six days plus 3 additional days, patient)?
A: Its value is “no evidence of the stones”.

Q: What about the “results of similar clinical trials” value (similar clinical trials at the Mayo Clinic) of the same compound?
A: Its value is “equally good results”.

Q: Which “solubility of gallstones in the compound” value [2] does the source give for CCCCCCCC(=O)OCC(COC(=O)CCCCCCC)OC(=O)CCCCCCC [glycerol tri-octanoate] here?
A: The value was “suitably soluble”.

Q: Which “change in size of stones” value [5] does the source give for C[C@H](CCC(=O)O)[C@H]1CC[C@H]2[C@@H]3[C@H](O)C[C@@H]4C[C@H](O)CC[C@]4(C)[C@H]3C[C@H](O)[C@]12C [sodium cholate] here?
A: The value was “little or no apparent change”.

Q: What about the “solubilizing capacity for gallstones” value ([1]; prior art) of the same compound?
A: The value was “definite but low”.

Q: And the bile acid diarrhea ([1]; uncontrolled studies)?
A: The bile acid diarrhea was “often with bile acid diarrhea”.

Q: What about the “time to disappearance of distal common bile duct stones” value ([1]; uncontrolled studies) of the same compound?
A: Its value is 1-4 weeks.

Q: Which results are given for Oxycholic acid?
A: solubilizing capacity for gallstones ([1]; prior art): definite but low; bile acid diarrhea ([1]; in vivo): often with bile acid diarrhea; time to disappearance of distal common bile duct stones ([1]; uncontrolled studies): 1-4 weeks

Q: Which “solubility of gallstones in the compound” value [2] does the source give for glycerol di-decanoate here?
A: The value was “suitably soluble”.

Q: Which “fragmentation or dissolution of gallstones” value ([1]; in saline solution, prior art) does the source give for heparin here?
A: The value was “function poorly”.

Q: Which results are given for propylene glycol mono-octanoate?
A: solvency for the gallstones [3]: high solvency; results in treatment of gallstones [3]: particularly excellent results; viscosity [4]: low viscosity
